Reference: ChEMBL document CHEMBL1201862, “PubChem BioAssay data set” (2004)
Each block holds one molecule with its values, some of them ahead of it. Activity calls are given as the source filed them.

Columns and labels:
[1] = molecular target: T1, Ubiquitin-conjugating enzyme E2 N (Homo sapiens, UniProt P61088); assay type: functional
T1 sequence (P61088 whole entry): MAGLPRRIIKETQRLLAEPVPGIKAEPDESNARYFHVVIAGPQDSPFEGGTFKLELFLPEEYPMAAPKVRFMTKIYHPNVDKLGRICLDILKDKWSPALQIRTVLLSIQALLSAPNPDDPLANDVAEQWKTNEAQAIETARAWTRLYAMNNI

[2] = molecular target: T2, Type-1 angiotensin II receptor (Homo sapiens, UniProt P30556); assay: agonist activity at AGTR1 – cell-based, uHTS hits, selectivity assay for APJ receptor agonist project, dose response (AID 488865); assay type: functional;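 further: beta-arrestin recruitment to AT1 measured by enzyme fragment complementation luminescence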
T2 sequence (P30556 whole entry): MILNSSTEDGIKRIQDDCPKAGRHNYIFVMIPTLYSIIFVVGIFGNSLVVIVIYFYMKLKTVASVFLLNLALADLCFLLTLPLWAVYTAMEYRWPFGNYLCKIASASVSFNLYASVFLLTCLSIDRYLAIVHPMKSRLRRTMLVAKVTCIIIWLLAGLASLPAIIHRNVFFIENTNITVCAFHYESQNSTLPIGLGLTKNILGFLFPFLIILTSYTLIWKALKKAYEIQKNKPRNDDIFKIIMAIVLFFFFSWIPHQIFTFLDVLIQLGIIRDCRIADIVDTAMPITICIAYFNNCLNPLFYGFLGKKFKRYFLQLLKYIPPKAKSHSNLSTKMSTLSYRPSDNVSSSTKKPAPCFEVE

[3] = molecular target: T1, Ubiquitin-conjugating enzyme E2 N; assay type: functional; remark: listed apart in the source
[4] = molecular target: T3, Bcl-2-related protein A1 (Mus musculus, UniProt Q07440); assay type: functional;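 further: confirmatory dose–response counterscreen on Bfl-1, used to check hits from a UBC13 polyubiquitin inhibitor campaign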
T3 sequence (Q07440 whole entry): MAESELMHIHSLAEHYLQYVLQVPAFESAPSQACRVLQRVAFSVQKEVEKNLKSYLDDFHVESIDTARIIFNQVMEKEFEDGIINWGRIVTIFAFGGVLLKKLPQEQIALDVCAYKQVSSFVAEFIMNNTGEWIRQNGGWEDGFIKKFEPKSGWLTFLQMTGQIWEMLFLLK

[5] = Luminescence Cell-Based Dose Retest to Confirm Inhibitors of Cancer Stem Cells. [Related pubchem assays (depositor defined):AID2717, AID2721]; assay type: functional; details: Homo sapiens
[6] = molecular target: Melanocortin receptor 4 (Homo sapiens, UniProt P32245); assay type: functional, cell-based;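 further: Cell-based assay with luminescence read-out, confirmatory dose-response testing for agonist activity of biased ligands at MC4R; human U2OS cells with tagged receptor and beta-arrestin; potency of agonists that increase receptor coupling to beta-arrestin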
[7] = molecular target: Integrin alpha-4 (Homo sapiens, UniProt P13612); assay: allosteric modulators of alpha4 integrin VLA-4 – cell-based, LIBS antibody binding, flow cytometry, SAR follow-up (AID 488791); assay type: functional
[8] = molecular target: T4, Coagulation factor XII (Homo sapiens, UniProt P00748); assay: Factor XIIa Dose Response Confirmation from Single Well HTS. [Related pubchem assays (depositor defined):AID701]; assay type: functional
T4 sequence (P00748 whole entry): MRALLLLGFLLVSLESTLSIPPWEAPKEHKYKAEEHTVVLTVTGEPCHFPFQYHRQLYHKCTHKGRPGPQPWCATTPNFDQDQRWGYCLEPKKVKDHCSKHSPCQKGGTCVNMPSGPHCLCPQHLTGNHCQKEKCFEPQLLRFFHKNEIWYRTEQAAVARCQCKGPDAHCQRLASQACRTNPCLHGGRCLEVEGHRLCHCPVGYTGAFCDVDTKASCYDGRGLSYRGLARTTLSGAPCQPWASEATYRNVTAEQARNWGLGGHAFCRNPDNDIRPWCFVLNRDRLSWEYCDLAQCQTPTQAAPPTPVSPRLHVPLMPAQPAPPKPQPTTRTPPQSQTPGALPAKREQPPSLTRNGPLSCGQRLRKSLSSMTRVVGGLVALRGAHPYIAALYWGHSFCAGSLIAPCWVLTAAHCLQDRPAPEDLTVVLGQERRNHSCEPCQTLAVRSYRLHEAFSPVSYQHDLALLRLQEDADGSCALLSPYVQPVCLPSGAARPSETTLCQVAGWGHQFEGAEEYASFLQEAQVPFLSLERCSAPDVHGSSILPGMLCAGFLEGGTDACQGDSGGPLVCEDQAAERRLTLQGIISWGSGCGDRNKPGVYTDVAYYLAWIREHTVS
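Wherever AC50 is given: cells exposed to compound for roughly 70 hours or longer before luminescence read.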

Integrin alpha-4, sequence (P13612 whole entry): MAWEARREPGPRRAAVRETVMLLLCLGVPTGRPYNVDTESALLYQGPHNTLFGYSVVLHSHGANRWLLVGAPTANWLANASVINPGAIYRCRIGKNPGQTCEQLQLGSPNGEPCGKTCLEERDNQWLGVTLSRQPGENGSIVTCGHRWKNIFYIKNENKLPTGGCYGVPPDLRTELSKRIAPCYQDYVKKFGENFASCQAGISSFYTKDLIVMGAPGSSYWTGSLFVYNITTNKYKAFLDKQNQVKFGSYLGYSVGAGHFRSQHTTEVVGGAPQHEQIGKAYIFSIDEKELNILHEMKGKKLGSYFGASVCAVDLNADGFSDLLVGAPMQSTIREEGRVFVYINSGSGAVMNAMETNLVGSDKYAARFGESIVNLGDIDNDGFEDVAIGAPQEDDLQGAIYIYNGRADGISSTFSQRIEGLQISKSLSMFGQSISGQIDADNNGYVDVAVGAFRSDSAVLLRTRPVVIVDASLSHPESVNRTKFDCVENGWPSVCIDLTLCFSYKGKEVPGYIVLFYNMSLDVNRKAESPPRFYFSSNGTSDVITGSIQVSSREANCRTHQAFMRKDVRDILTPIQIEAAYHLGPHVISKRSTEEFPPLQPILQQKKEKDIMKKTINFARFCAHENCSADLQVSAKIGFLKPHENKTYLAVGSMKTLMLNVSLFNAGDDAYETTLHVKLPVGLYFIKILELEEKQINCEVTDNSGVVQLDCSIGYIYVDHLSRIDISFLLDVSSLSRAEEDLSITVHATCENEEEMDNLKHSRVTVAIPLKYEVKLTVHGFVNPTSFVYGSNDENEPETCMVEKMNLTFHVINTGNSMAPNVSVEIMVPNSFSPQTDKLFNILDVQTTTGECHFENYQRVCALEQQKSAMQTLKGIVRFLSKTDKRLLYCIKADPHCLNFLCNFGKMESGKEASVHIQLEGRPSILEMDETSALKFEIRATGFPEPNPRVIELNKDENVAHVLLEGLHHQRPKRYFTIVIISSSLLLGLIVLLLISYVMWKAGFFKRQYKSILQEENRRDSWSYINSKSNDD
Melanocortin receptor 4, sequence (P32245 whole entry): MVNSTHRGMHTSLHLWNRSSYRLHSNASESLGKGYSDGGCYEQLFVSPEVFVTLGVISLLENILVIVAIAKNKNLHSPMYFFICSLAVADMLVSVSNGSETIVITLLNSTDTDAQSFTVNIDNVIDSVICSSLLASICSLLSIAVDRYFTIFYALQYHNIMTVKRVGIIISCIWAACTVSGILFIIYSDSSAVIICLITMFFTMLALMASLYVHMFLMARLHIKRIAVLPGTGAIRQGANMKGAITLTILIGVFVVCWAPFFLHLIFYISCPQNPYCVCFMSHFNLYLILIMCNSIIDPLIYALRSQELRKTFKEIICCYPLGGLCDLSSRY

- IC50 [1]: 5.52 µM (active)
- EC50 [2]: > 100 µM (inactive)
- IC50 [3]: 6.95 µM (active)
- IC50 [4]: > 20 µM (inactive)
SMILES: CCOc1ccc2nc(N(CCCN(C)C)C(=O)c3ccc(S(=O)(=O)N4CCc5ccccc5C4)cc3)sc2c1

SMILES: c1ccc(-c2sc3ccccc3c2-c2ccc(OCCN3CCCC3)cc2)cc1
- AC50 [5]: 2.21 µM (active)
- EC50 [6]: > 89.2 µM (inactive)
- EC50 [7]: 26.1 µM (active)

- IC50 [8]: > 50 µM (inactive)
SMILES: O=C(c1ccc2c(c1)OCO2)N1CCN(c2ccc(F)cc2)CC1
